Some test systems named below: ACHN renal; KM12 colon; LOX IMVI melanoma; MALME-3M melanoma; OVCAR-8 ovarian; SNB-19 CNS; TK-10 renal; RPMI-8226 leukemia; MDA-MB-435; MCF7 breast.
Common to all, as to test: growth of human tumour cells (NCI), 48 h

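Cultured in 96-well plates, cells were exposed to test compound for 48 hours across five concentrations. GI50 = concentration required for 50% inhibition of growth. TGI is the concentration that stops growth completely.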

This note sets out measurements from PubChem BioAssay (NCI).

In the case of `CN(C)CCCNC(=O)N/N=C/c1ccccc1`, the TGI in the assay with ACHN renal, in the assay on KM12 colon, in the assay on LOX IMVI melanoma, with MALME-3M melanoma, in the assay on OVCAR-8 ovarian and in the assay on SNB-19 CNS was over 100 µM throughout. Moreover, in the assay on TK-10 renal, the TGI is over 100 µM.

`O=C1c2cc3c(cc2-c2c1c1ccc(Cl)cc1c(=O)n2CCCn1ccnc1)OCO3`: the GI50 with ACHN renal was under 0.01 µM; in the assay on LOX IMVI melanoma it was under 0.01 µM; in the assay on MALME-3M melanoma it was 0.0647 µM; with OVCAR-8 ovarian, 0.0116 µM; with RPMI-8226 leukemia it was 0.0215 µM; in the assay with TK-10 renal, 0.54 µM. Further, the TGI with ACHN renal is 1.09 µM; in the assay with LOX IMVI melanoma it was 0.0297 µM; in the assay on MALME-3M melanoma, over 100 µM; with OVCAR-8 ovarian it was over 100 µM; in the assay with RPMI-8226 leukemia, 0.546 µM; in the assay with TK-10 renal, over 100 µM.

For the compound `CC[C@]12C=CCN3CCC4(c5cc([C@@]6(C(=O)OC)CC7CN(CCc8c6[nH]c6ccccc86)CC6CCCCC67)c(OC)cc5N(C)C4[C@](O)(C(=O)OC)C1OC(C)=O)[C@@H]32` (some centres not stated), the TGI in the assay on ACHN renal was 11.6 µM; with KM12 colon, 15.7 µM; in the assay with LOX IMVI melanoma, 6.46 µM; with MALME-3M melanoma, 7.05 µM; in the assay on MDA-MB-435, under 0.01 µM; in the assay on OVCAR-8 ovarian, 0.747 µM. The TGI in the assay on RPMI-8226 leukemia came to 61.3 µM; in the assay on SNB-19 CNS, 15.4 µM; with TK-10 renal it was 18.7 µM.

`CC(=O)/C(=N\Nc1ccc(Cl)cc1)C(C)=Nc1ccc(C)cc1`: the TGI is 61.3 µM in the assay with ACHN renal; over 100 µM in the assay with KM12 colon; over 100 µM with LOX IMVI melanoma; 59.2 µM with MALME-3M melanoma; over 100 µM in the assay with MDA-MB-435; over 100 µM with OVCAR-8 ovarian. Besides, the TGI in the assay with RPMI-8226 leukemia, with SNB-19 CNS and in the assay with TK-10 renal was over 100 µM throughout.

Regarding `CCCCNC(=O)Cn1c2ccc(Br)cc2c2nc3ccccc3nc21`, the TGI in the assay with ACHN renal, in the assay on KM12 colon, with LOX IMVI melanoma, in the assay on MDA-MB-435, with OVCAR-8 ovarian and with RPMI-8226 leukemia was over 100 µM throughout. Further, the TGI in the assay with SNB-19 CNS and in the assay on TK-10 renal was over 100 µM each time.

For the compound `OC(CC(O)(C(F)(F)Cl)C(F)(F)Cl)c1ccccc1` (configuration not stated), the TGI with ACHN renal, in the assay on KM12 colon, with LOX IMVI melanoma, in the assay with MALME-3M melanoma, with MCF7 breast and in the assay with OVCAR-8 ovarian was over 10 µM each time. Also, the TGI in the assay on RPMI-8226 leukemia, with SNB-19 CNS and in the assay on TK-10 renal was over 10 µM throughout.

Regarding `c1ccc2c(c1)cc1ccc3cccc4ccc2c1c34`, the TGI in the assay on ACHN renal, in the assay on KM12 colon, in the assay on LOX IMVI melanoma, in the assay on MALME-3M melanoma, with MDA-MB-435 and in the assay on OVCAR-8 ovarian was over 100 µM in each case. For the same compound, the TGI in the assay on RPMI-8226 leukemia, with SNB-19 CNS and in the assay on TK-10 renal was over 100 µM throughout. For the same compound, in the assay on MALME-3M melanoma, the GI50 is over 100 µM.

Consider `COc1cc(N=Nc2ccc(OC)c(S(=O)(=O)O)c2)c(C)cc1N=Nc1ccc(/C=C/c2ccc(N=[N+]([O-])c3ccc(/C=C/c4ccc(N=Nc5cc(C)c(N=Nc6ccc(OC)c(S(=O)(=O)O)c6)cc5OC)cc4S(=O)(=O)O)c(S(=O)(=O)O)c3)cc2S(=O)(=O)O)c(S(=O)(=O)O)c1`, for which the TGI with KM12 colon, in the assay with LOX IMVI melanoma, in the assay on MALME-3M melanoma, in the assay on MCF7 breast, with OVCAR-8 ovarian and in the assay with RPMI-8226 leukemia was over 100 µM in each case. In addition, the TGI with SNB-19 CNS was over 100 µM.

Regarding `O=C1CSC(c2c[nH]c3ccccc23)N1c1ccc(Cl)cc1Cl` (configuration not stated), the TGI with KM12 colon, in the assay with LOX IMVI melanoma, in the assay with MCF7 breast, in the assay with OVCAR-8 ovarian, with RPMI-8226 leukemia and in the assay with SNB-19 CNS was over 100 µM throughout. In addition, the TGI in the assay on TK-10 renal is over 100 µM.

For the compound `CCCn1cc2c3c(cccc31)C1C=C(C)CN(C)C1C2` (configuration not stated), the TGI with KM12 colon came out at 58 µM; in the assay with LOX IMVI melanoma, 39.8 µM; in the assay on MALME-3M melanoma it was 55.5 µM; in the assay with MCF7 breast it was 37.8 µM; with OVCAR-8 ovarian, 66.5 µM; in the assay with RPMI-8226 leukemia, 25.1 µM. This compound also displayed a TGI in the assay on SNB-19 CNS of 62.1 µM.

`O=C1CC[C@@]23CC(=O)O[C@@H]2CCCC3C1` (some centres not stated): the TGI in the assay with ACHN renal, with KM12 colon, in the assay with LOX IMVI melanoma, in the assay on MALME-3M melanoma, in the assay with MCF7 breast and in the assay on OVCAR-8 ovarian was over 100 µM throughout. Moreover, the TGI with RPMI-8226 leukemia, with SNB-19 CNS and with TK-10 renal was over 100 µM each time.

Take `c1cncc(CSc2nc3ccccc3nc2-c2cccs2)c1`: the TGI with ACHN renal, in the assay with KM12 colon, in the assay on LOX IMVI melanoma, in the assay with MALME-3M melanoma, in the assay on OVCAR-8 ovarian and in the assay with RPMI-8226 leukemia was over 100 µM throughout. The TGI in the assay with SNB-19 CNS and in the assay on TK-10 renal was over 100 µM each time.
